Experimental data: ChEMBL document CHEMBL4483862, “Open-source discovery of chemical leads for next-generation chemoprotective antimalarials” (2018)

System: Plasmodium berghei
Assay: Luciferase/luciferin-expressing antifolate-resistant parasites were used to infect a culture of HepG2 cells that were pre-incubated with compounds. Infected hepatocytes emit light due to the luciferase reaction. Assay results are presented as the percent inhibition of light emission compared to control. […]
Type: functional
Conditions: sporozoite; for IC90: read-out: LUCIFERASE INFECTION ASSAY - IC90
[1] = read-out: LUCIFERASE INFECTION ASSAY - IC50

`O=C(Nc1ccc(OC(F)(F)F)cc1)Nc1cc(-c2ccccc2)n[nH]1` showed an IC50 (PBLUC_HILL_SLOPE 11.1, PBLUC_R_SQUARED 0.558, read-out: LUCIFERASE INFECTION ASSAY - IC50) of 3.3 µM and an IC90 of 4.02 µM.

Compound `CCOc1ccc(OS(=O)(=O)c2ccc(-n3ncc(Cl)c(Cl)c3=O)cc2)cc1` has an IC50 (FFLUC_HILL_SLOPE 1.43, FFLUC_R_SQUARED 0.409, HEPG2TOX_HILL_SLOPE 3.88, HEPG2TOX_R_SQUARED 0.973, PBLUC_HILL_SLOPE 4.23, PBLUC_R_SQUARED 0.659, read-out: LUCIFERASE INFECTION ASSAY - IC50) of 1.99 µM and an IC90 of 3.34 µM.

`CCOc1ccc(CCC2CCN(C(=O)Cn3c(=O)[nH]c(=O)c4ccccc43)CC2)cc1` was tested, and the IC50 (HEPG2TOX_HILL_SLOPE 1.65, HEPG2TOX_R_SQUARED 0.957, PBLUC_HILL_SLOPE 2.43, PBLUC_R_SQUARED 0.244, read-out: LUCIFERASE INFECTION ASSAY - IC50) was 5.37 µM and the IC90 was > 10 µM.

`COc1cccc(-c2nc3ccnc(NCc4ccccc4)c3[nH]2)c1` showed an IC50 (HEPG2TOX_HILL_SLOPE 1.62, HEPG2TOX_R_SQUARED 0.805, PBLUC_HILL_SLOPE 1.55, PBLUC_R_SQUARED 0.567, read-out: LUCIFERASE INFECTION ASSAY - IC50) of 1.93 µM and an IC90 of 7.99 µM.

With `Cc1ccc(-c2c(C)sc3[nH]c(CN(Cc4nc(=O)c5c(-c6ccc(C)cc6)c(C)sc5[nH]4)Cc4ccccc4CN4CCCC4)nc(=O)c23)cc1` the IC50 [1] was > 10 µM and the IC90 was > 10 µM.

`Cc1ccc(O)c(C(=O)c2cn/c(=N\c3ccccc3)n(-c3ccccc3)c2)c1` was tested, and the IC50 (PBLUC_HILL_SLOPE 10.6, PBLUC_R_SQUARED 0.86, read-out: LUCIFERASE INFECTION ASSAY - IC50) was 3.32 µM and the IC90 was 4.08 µM.

Work on `CCCOc1c(/C=C/C(=O)c2ccc(OCC#N)cc2)cccc1OCC` yielded an IC50 (PBLUC_HILL_SLOPE 10.6, PBLUC_R_SQUARED 0.425, read-out: LUCIFERASE INFECTION ASSAY - IC50) of 7.88 µM and an IC90 of 9.68 µM.

In the case of `CN(c1ccccc1)c1nnc(C(O)c2ccc3ccccc3c2)s1` (centres undefined), the IC50 (PBLUC_HILL_SLOPE 0.974, PBLUC_R_SQUARED 0.604, read-out: LUCIFERASE INFECTION ASSAY - IC50) is reported as 3.52 µM and the IC90 is reported as > 10 µM.

For `Oc1cccc(-c2cnc3ccc(-c4cccc(C(F)(F)F)c4)nn23)c1`, the IC50 (PBLUC_HILL_SLOPE 3.46, PBLUC_R_SQUARED 0.251, read-out: LUCIFERASE INFECTION ASSAY - IC50) was 6.43 µM and the IC90 was > 10 µM.

`CC(OC(=O)c1cc(-c2ccccc2)nc2c1cnn2Cc1ccccc1)C(=O)NC(C)(C)C` (centres undefined) was tested, and the IC50 (PBLUC_HILL_SLOPE 5.07, PBLUC_R_SQUARED 0.772, read-out: LUCIFERASE INFECTION ASSAY - IC50) was 4.36 µM and the IC90 was 6.73 µM.

For `CSc1nn(-c2ccc(C(=O)OCc3c(C)cc(C(C)(C)C)cc3C)cc2)c(=S)s1`, the IC50 [1] was > 10 µM and the IC90 was > 10 µM.

For `Nn1c(SC2CCCCC2=O)nnc1C1CCCCC1` (centres undefined), the IC50 [1] was > 10 µM and the IC90 was > 10 µM.

With `O=C1C=CC(=O)N1c1ccc(Oc2ccccc2)cc1` the IC50 (FFLUC_HILL_SLOPE 1.06, FFLUC_R_SQUARED 0.54, read-out: LUCIFERASE INFECTION ASSAY - IC50) was > 12.4 µM and the IC90 was > 12.4 µM.

`O=C(Nc1ccc(SC(F)(F)F)cc1)Nc1cccnc1N1CCC(C(F)(F)F)CC1` showed an IC50 (HEPG2TOX_HILL_SLOPE 11.5, HEPG2TOX_R_SQUARED 0.688, PBLUC_HILL_SLOPE 15.9, PBLUC_R_SQUARED 0.276, read-out: LUCIFERASE INFECTION ASSAY - IC50) of 2.03 µM and an IC90 of 2.33 µM.

In the case of `CN(C)c1cccc(-c2cnc3cnc(-c4ccc(C(=O)NCCO)cc4)cn23)c1`, the IC50 [1] is reported as > 8.22 µM and the IC90 is reported as > 8.22 µM.

Compound `CC(C)(C)c1ccccc1NC(=O)Nc1nc(C(N)Cc2ccc(Cl)cc2)cs1` (centres undefined) has an IC50 (PBLUC_HILL_SLOPE 4.24, PBLUC_R_SQUARED 0.754, read-out: LUCIFERASE INFECTION ASSAY - IC50) of 3.28 µM and an IC90 of 5.51 µM.

With `Cc1cc(C(=O)NC2CCN(c3ncnc4sc5c(c34)CCCC5)CC2)on1` the IC50 [1] was > 10 µM and the IC90 was > 10 µM.

With `COc1ccc(C(=O)Nc2cc(Cl)ccc2N2CCCCC2)cc1S(=O)(=O)N(C)OC` the IC50 (FFLUC_HILL_SLOPE 10.9, FFLUC_R_SQUARED 0.3, PBLUC_HILL_SLOPE 12.4, PBLUC_R_SQUARED 0.0122, read-out: LUCIFERASE INFECTION ASSAY - IC50) was > 10 µM and the IC90 was > 10 µM.

With `Cn1cc(/C=C/C(=O)c2ccc(-c3ccc(F)cc3)s2)cn1` the IC50 [1] was > 10 µM and the IC90 was > 10 µM.

With `N#C/C(=N\Nc1cccc(Cl)c1Cl)C(N)=S` the IC50 (PBLUC_HILL_SLOPE 7.41, PBLUC_R_SQUARED 0.441, read-out: LUCIFERASE INFECTION ASSAY - IC50) was > 12.1 µM and the IC90 was > 12.1 µM.

With `Cc1ccccc1C(c1ncccc1C)N(C)C(=O)C1CCN(C(=O)c2cccc(Cl)c2)CC1` (centres undefined) the IC50 [1] was > 6.93 µM and the IC90 was > 6.93 µM.

With `Cc1onc(-c2c(Cl)cccc2Cl)c1C(=O)N1CCCc2ccccc21` the IC50 (HEPG2TOX_HILL_SLOPE 0.734, HEPG2TOX_R_SQUARED 0.611, PBLUC_HILL_SLOPE 1.71, PBLUC_R_SQUARED 0.613, read-out: LUCIFERASE INFECTION ASSAY - IC50) was 3.64 µM and the IC90 was > 8.52 µM.

`CCCCc1ccc(NC(=O)/C(C#N)=C/c2ccccc2Cl)cc1` was tested, and the IC50 [1] was > 10 µM and the IC90 was > 10 µM.

`CC(C)(C)c1ccc(/C=N/NC(=O)CNc2ccccc2F)cc1` was tested, and the IC50 [1] was > 10 µM and the IC90 was > 10 µM.

In the case of `CN(C)CCNc1ccnc2c(-c3ccc4ccccc4c3)cnn12`, the IC50 (PBLUC_HILL_SLOPE 0.931, PBLUC_R_SQUARED 0.843, read-out: LUCIFERASE INFECTION ASSAY - IC50) is reported as 1.06 µM and the IC90 is reported as > 9.96 µM.

`Cn1ccc2cc(-c3cn4c(-c5ccc6ncccc6c5)cnc4cn3)ccc21` was tested, and the IC50 [1] was 1.36 µM and the IC90 was 3.52 µM.

`COc1ccc(Nc2nc(NCCO)c3ccccc3n2)cc1` was tested, and the IC50 [1] was > 10 µM and the IC90 was > 10 µM.

With `CCCCc1ccc(C(=O)Nc2nc3ccc(C)cn3c2C(=O)NCCC)cc1` the IC50 (HEPG2TOX_HILL_SLOPE 1.88, HEPG2TOX_R_SQUARED 0.855, PBLUC_HILL_SLOPE 16.2, PBLUC_R_SQUARED 0.661, read-out: LUCIFERASE INFECTION ASSAY - IC50) was 2.78 µM and the IC90 was 3.18 µM.

In the case of `Cn1ccc2cc(-c3cn4c(-c5ccc(C#N)cc5)cnc4cn3)ccc21`, the IC50 (HEPG2TOX_HILL_SLOPE 1.34, HEPG2TOX_R_SQUARED 0.963, PBLUC_HILL_SLOPE 3.57, PBLUC_R_SQUARED 0.761, read-out: LUCIFERASE INFECTION ASSAY - IC50) is reported as 0.295 µM and the IC90 is reported as 0.546 µM.

In the case of `Fc1cccc(F)c1NC(=S)Nc1cc(C(F)(F)F)cc(C(F)(F)F)c1`, the IC50 [1] is reported as > 8.24 µM and the IC90 is reported as > 8.24 µM.

With `S=C(NCc1ccccc1Cl)NC12CC3CC(CC(C3)C1)C2` the IC50 (HEPG2TOX_HILL_SLOPE 5.09, HEPG2TOX_R_SQUARED 0.92, PBLUC_HILL_SLOPE 1.78, PBLUC_R_SQUARED 0.451, read-out: LUCIFERASE INFECTION ASSAY - IC50) was 7.44 µM and the IC90 was > 9.85 µM.

For `Cc1nc2cc(Nc3nc(CN4CCOCC4)nc4scc(-c5ccccc5)c34)ccc2n1-c1ccccc1`, the IC50 [1] was > 10 µM and the IC90 was > 10 µM.

In the case of `O=C(Nc1sc2ccccc2c(=O)c1-c1ccccc1)C1CCCCC1`, the IC50 [1] is reported as > 9.08 µM and the IC90 is reported as > 9.08 µM.

`Cc1ccccc1/N=C1\SCC(C)(C)N1C(=O)c1ccccc1OCc1ccccc1` was tested, and the IC50 [1] was > 10 µM and the IC90 was > 10 µM.

With `COC(=O)c1cc(OC)c(OC)cc1NS(=O)(=O)c1ccc(OC)cc1` the IC50 [1] was 3.35 µM and the IC90 was > 8.65 µM.

With `CCSc1ccccc1C(=O)Nc1ccc(C(=O)OC)cc1` the IC50 [1] was > 10.5 µM and the IC90 was > 10.5 µM.

With `[O-][S+](Cc1cc(N2CCCCC2)nc(-c2ccccn2)n1)c1ccc(Cl)cc1` (centres undefined) the IC50 [1] was > 7.99 µM and the IC90 was > 7.99 µM.

`CCOc1cc(/C=C/C(=O)c2ccc(F)c(Br)c2)cc(Cl)c1OCC(=O)N(C)C` was tested, and the IC50 [1] was > 10 µM and the IC90 was > 10 µM.

With `CCCCNC(=O)c1c(NC(=O)c2c(F)cccc2F)nc2ccc(C)cn12` the IC50 [1] was 5.12 µM and the IC90 was 6.69 µM.

In the case of `C/C(N)=C(/C#N)C(=O)CSc1nnc(-c2ccc(C(C)(C)C)cc2)n1-c1cccc(Cl)c1Cl`, the IC50 [1] is reported as > 10 µM and the IC90 is reported as > 10 µM.

In the case of `CCCCNC(=O)c1c(NC(=O)c2ccc(OC)cc2)nc2ccc(C)cn12`, the IC50 (HEPG2TOX_HILL_SLOPE 7.85, HEPG2TOX_R_SQUARED 0.829, PBLUC_HILL_SLOPE 17, PBLUC_R_SQUARED 0.0919, read-out: LUCIFERASE INFECTION ASSAY - IC50) is reported as 7.51 µM and the IC90 is reported as 8.55 µM.

For `COc1cc(-c2cc(-c3cc(C)c(O)c(C)c3)cnc2N)ccc1O`, the IC50 (HEPG2TOX_HILL_SLOPE 11.4, HEPG2TOX_R_SQUARED 0.062, PBLUC_HILL_SLOPE 8, PBLUC_R_SQUARED 0.677, read-out: LUCIFERASE INFECTION ASSAY - IC50) was 2.99 µM and the IC90 was 3.93 µM.

`O=C1/C(=C/c2ccc(-n3nncc3C34CC5CC(CC(C5)C3)C4)cc2)CCC/C1=C\c1ccc(-n2nncc2C23CC4CC(CC(C4)C2)C3)cc1` was tested, and the IC50 (FFLUC_HILL_SLOPE 2.2, FFLUC_R_SQUARED 0.872, HEPG2TOX_HILL_SLOPE 3.7, HEPG2TOX_R_SQUARED 0.967, PBLUC_HILL_SLOPE 5.71, PBLUC_R_SQUARED 0.867, read-out: LUCIFERASE INFECTION ASSAY - IC50) was 2.87 µM and the IC90 was 4.22 µM.

`CCN1C(=O)N(Cc2cccc(OC)c2)C(=O)C12CCN(Cc1cn(C)c3ccccc13)CC2` was tested, and the IC50 (PBLUC_HILL_SLOPE 4.47, PBLUC_R_SQUARED 0.0939, read-out: LUCIFERASE INFECTION ASSAY - IC50) was 6.08 µM and the IC90 was > 7.16 µM.

With `COc1cc(-c2[nH]nc3nccc(/C=C/c4ccccc4)c23)cc(OC)c1OC` the IC50 (HEPG2TOX_HILL_SLOPE 1.93, HEPG2TOX_R_SQUARED 0.947, PBLUC_HILL_SLOPE 2.35, PBLUC_R_SQUARED 0.701, read-out: LUCIFERASE INFECTION ASSAY - IC50) was 0.378 µM and the IC90 was 0.962 µM.

With `N#CCSC1=CC(=O)CC(c2ccccc2)S1` (centres undefined) the IC50 [1] was > 12.6 µM and the IC90 was > 12.6 µM.

For `CCCCN(C)S(=O)(=O)c1ccc(NC(=O)c2ccc3nccnc3c2)cc1`, the IC50 [1] was > 10 µM and the IC90 was > 10 µM.
